These results are taken from patent publication US20260216105A1, “CAPSAICIN EMULSION COMPOSITION, PREPARATION METHOD THEREFOR, AND USE THEREOF” (priority 2022, published 2026).

What all share (assay type): physicochemical
Series [1] is described as follows: Physical phenomena of active ingredient / water-soluble solvent / water ternary mixtures. As to conditions: for mass ratio of water:EtOH (x:1) forming a liquid-liquid phase separation state: both at 0 h and 24 h after standing; for formation of a liquid-liquid phase separation system with ethanol and water: bupivacaine:EtOH 1:2, ropivacaine:EtOH 1:10. On the procedure: A stock solution was prepared with a mass ratio of CAP:EtOH=1:5. Then, 0.5 g samples of the stock solution were taken and respectively added into PE tubes, and different amounts of water (based on mass ratio of water to CAP) were added according to Table 6. […]
According to the protocols in Examples 4.1-4.3, the physical states of mixtures containing CAP and EtOH (at mass ratios of 1:1, 1:5, and 1:10) and different proportions of water (based on mass ratio of water to CAP) were studied at 0 h and 24 h after standing. […]
A stock solution was prepared with a mass ratio of bupivacaine:EtOH=1:2. Then, 0.5 g samples of the stock solution were taken and respectively added into PE tubes, and different amounts of water (based on ratio of water to bupivacaine) were added according to Table 14. The ternary mixtures were shaken and observed at 0 h and 24 h after standing. […]

Assay in series [2]: as above
A further series can be described thus: physchem. The following applies: for solubility at 24 h: 25 °C, thermodynamic from solid. On the procedure:
About 3 g of each solvent was weighed according to Table 3, and an excess amount of capsaicin was added. The mixture was placed into a constant-temperature oscillator for oscillation for 24 h (25° C., 200 rpm), and then centrifuged at 10000 rpm for 30 min. The supernatant was taken to measure the capsaicin content. The solubility of CAP in different solvents (different pH buffers, commonly used oil phases, and water-soluble organic solvents) was measured, with the results shown in Table 3: […]

Each structure is given as a SMILES string. Converted amounts (≈) assume the structure as drawn. Where only a bound is given, the exact number is not on record here.

Usually solubility stands for how much of the substance goes into solution per volume. The Solubility is the concentration that dissolves in the medium under given conditions. Lower therefore signals little dissolved substance. In the case of `COc1cc(CNC(=O)CCCC/C=C/C(C)C)ccc1O` [CAP, capsaicin], the “mass ratio of water:EtOH (x:1) forming a liquid-liquid phase separation state” value is listed as 0.65-2 in series [1] (CAP:EtOH 1:1), 1-2.2 in series [1] (CAP:EtOH 1:5) and 1.4-2.5 in series [1] (CAP:EtOH 1:10). For the same compound, the entries for the “formation of a liquid-liquid phase separation system with PEG200 and water” value in series [1] (CAP:PEG200 1:3) and in series [1] (CAP:PEG200 1:5 (increased mass of PEG200)) were “could not form a liquid-liquid phase separation system” and “failed to enable the formation of a liquid-liquid phase separation system”, respectively. The “formation of a liquid-liquid phase separation system with propylene glycol and water” value in series [1] (CAP:propylene glycol 1:5) is “failed to form a liquid-liquid phase separation system”. Besides, the “mass ratio of water:DGME (x:1) forming a liquid-liquid phase separation system” value in series [2] (CAP:DGME 1:1) is on record as 1-2. Further, the “mass ratio of water:DMI (x:1) forming a liquid-liquid phase separation system” value in series [2] (CAP:DMI 1:3) is 0.3-2. Besides, the “mass ratio of water:IPA (x:1) forming a liquid-liquid phase separation system” value in series [2] (CAP:IPA 1:1) is 0.5-2. Besides, the solubility at 24 h in the series “physchem” (oil or lipid, Castor oil, shaken at 25° C. for 24 h) is 36000 µg/mL (≈ 118 mM); in the series “physchem” (oil or lipid, GDO, shaken at 25° C. for 24 h), 45000 µg/mL (≈ 147 mM); in the series “physchem” (oil or lipid, MCT, shaken at 25° C. for 24 h), 14000 µg/mL (≈ 45.8 mM); in “physchem” (organic solvent or mixture, DGME, shaken at 25° C. for 24 h) it was 502000 µg/mL (≈ 1640 mM); in “physchem” (organic solvent or mixture, DMI, shaken at 25° C. for 24 h) it was greater than 500000 µg/mL; in the series “physchem” (organic solvent or mixture, Ethanol, shaken at 25° C. for 24 h) it was greater than 500000 µg/mL. Further, the solubility at 24 h in the series “physchem” (organic solvent or mixture, Isopropanol, shaken at 25° C. for 24 h) was greater than 500000 µg/mL; in the series “physchem” (organic solvent or mixture, PEG200, shaken at 25° C. for 24 h), 367000 µg/mL (≈ 1200 mM); in the series “physchem” (organic solvent or mixture, Propylene glycol, shaken at 25° C. for 24 h), 290000 µg/mL (≈ 950 mM); in the series “physchem” (organic solvent or mixture, in some water-soluble organic solvents), greater than 250000 µg/mL; in “physchem” (pH 1, simulated gastric fluid, pH 1.0 hydrochloric acid medium, shaken at 25° C. for 24 h), 45 µg/mL (≈ 0.147 mM); in the series “physchem” (pH 2, simulated gastric fluid, pH 2.0 hydrochloric acid medium, shaken at 25° C. for 24 h), 52 µg/mL (≈ 0.17 mM). Also, the solubility at 24 h is 44 µg/mL (≈ 0.144 mM) in the series “physchem” (pH 3, aqueous buffer, pH 3.0 phosphate medium, shaken at 25° C. for 24 h); 53 µg/mL (≈ 0.174 mM) in “physchem” (pH 4, aqueous buffer, pH 4.0 acetate medium, shaken at 25° C. for 24 h); 52 µg/mL (≈ 0.17 mM) in “physchem” (pH 5, aqueous buffer, pH 5.0 acetate medium, shaken at 25° C. for 24 h); 46 µg/mL (≈ 0.151 mM) in “physchem” (pH 6, aqueous buffer, pH 6.0 phosphate medium, shaken at 25° C. for 24 h); 45 µg/mL (≈ 0.147 mM) in the series “physchem” (pH 7, aqueous buffer, pH 7.0 phosphate medium, shaken at 25° C. for 24 h); 42 µg/mL (≈ 0.138 mM) in “physchem” (pH 8, aqueous buffer, pH 8.0 phosphate medium, shaken at 25° C. for 24 h). Moreover, the solubility at 24 h in “physchem” (pH 9, aqueous buffer, pH 9.0 carbonate medium, shaken at 25° C. for 24 h) stood at 53 µg/mL (≈ 0.174 mM); in “physchem” (pH 10, aqueous buffer, pH 10.0 carbonate medium, shaken at 25° C. for 24 h), 102 µg/mL (≈ 0.334 mM). Also, the Solubility is 5000 µg/mL (≈ 16.4 mM) in “physchem” (Corn oil, shaken at 25° C. for 24 h); 5000 µg/mL (≈ 16.4 mM) in the series “physchem” (Peanut oil, shaken at 25° C. for 24 h); 5000 µg/mL (≈ 16.4 mM) in “physchem” (Rapeseed oil, shaken at 25° C. for 24 h).

`CCCCN1CCCCC1C(=O)Nc1c(C)cccc1C` (stereo not shown) [bupivacaine]: in series [1], the “formation of a liquid-liquid phase separation system with ethanol and water” value is “failed to form a liquid-liquid phase separation system”.

`CCCN1CCCC[C@H]1C(=O)Nc1c(C)cccc1C` [ropivacaine]: in series [1], the “formation of a liquid-liquid phase separation system with ethanol and water” value is given as “failed to form a liquid-liquid phase separation system”.
